{"source": "patent US20250082624A1", "about": "“METHODS OF TREATING COGNITIVE IMPAIRMENT” (NeuroTherapia, Inc., priority 2023, published 2025)", "origin": "cited, not measured here", "tested_on": "rats", "details": "intracerebroventricular administration; cited from earlier work", "data": [{"smiles": "Cc1c(C(=O)c2cccc3ccccc23)c2cccc3c2n1[C@H](CN1CCOCC1)CO3", "note": "[WIN 55,212-2]", "values": [{"measurement": "Aβ-induced microglial activation, cognitive impairment, loss of neuronal markers", "result": "prevented A13-induced microglial activation, cognitive impairment, and loss of neuronal markers"}]}]}
